Source: patent US11759791B2, “Jet milling method” (VECTURA LIMITED, priority 2015, dated 2023)

Assay: Particle size analysis (wet analysis), Malvern Mastersizer 3000 Hydro MV
Type: physicochemical
Conditions: unmicronised / as supplied, wet analysis method
Description: […] The pump speed was set to 3000 rpm. […] The dispersed particles were added to the dispersion unit to reach an obscuration of 5-15%. The optical properties used included a refractive index of 1.52 and an absorption value of 1.0 for the glycopyrrolate, and a refractive index of 1.45 and an absorption value of 1.0 for the magnesium stearate and a refractive index of 1.391 for the iso-octane. Six replicates were performed per measurement.

## magnesium stearate
  D10 particle size of source powder: 2.8 μm
  D50 particle size of source powder: 8.8 μm
  D90 particle size of source powder: 27.4 μm

## C[N+]1(C)CCC(OC(=O)C(O)(c2ccccc2)C2CCCC2)C1 (stereo not drawn) [Unmicronised glycopyrrolate, glycopyrrolate]
  D10 particle size of source powder: 20.6 μm
  D50 particle size of source powder: 148.7 μm
  D90 particle size of source powder: 409.7 μm
